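Five concentrations, 48 hours, 96-well plates. TGI marks complete inhibition of growth.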

The subject of the first assay is 786-0 renal. Description: inhibition of tumour cell growth, NCI panel, 48 h.
As to `CCCCCCCCCCCC(=O)Oc1c(Cl)cc(Cl)c(OC(=O)C(=O)Oc2c(Cl)cc(Cl)c(OC(=O)CCCCCCCCCCC)c2Cl)c1Cl`, the TGI was above 100 µM.

`CC(NNC(=O)c1ccncc1)c1ccc(F)cc1` (stereo not drawn) had a TGI above 100 µM.

In the case of `Cn1c(=S)[nH]c2sc3c(c2c1=O)CCSC3`, the TGI is above 100 µM.

Consider `O=C(/C=C/c1ccccc1)/C=N/N1C(=S)N(c2ccccc2)C(=Nc2ccccc2)C1=Nc1ccccc1`, for which the TGI is above 100 µM.

The test system of the next assay is A498 renal. Description: inhibition of tumour cell growth, NCI panel, 48 h.
`CC(NNC(=O)c1ccncc1)c1ccc(F)cc1` (stereo not drawn) showed a TGI above 100 µM.

Molecule `Cn1c(=S)[nH]c2sc3c(c2c1=O)CCSC3` returned a TGI above 100 µM.

The next assay concerns A549 NSCLC. Kind of assay: inhibition of tumour cell growth, NCI panel, 48 h.
Molecule `CCCCCCCCCCCC(=O)Oc1c(Cl)cc(Cl)c(OC(=O)C(=O)Oc2c(Cl)cc(Cl)c(OC(=O)CCCCCCCCCCC)c2Cl)c1Cl` came in with a TGI above 100 µM.

`CC(NNC(=O)c1ccncc1)c1ccc(F)cc1` (stereo not drawn) yielded a TGI above 100 µM.

`Cn1c(=S)[nH]c2sc3c(c2c1=O)CCSC3`: the TGI was above 100 µM.

Molecule `O=C(/C=C/c1ccccc1)/C=N/N1C(=S)N(c2ccccc2)C(=Nc2ccccc2)C1=Nc1ccccc1` came in with a TGI above 100 µM.

A further assay relates to ACHN renal. Description: inhibition of tumour cell growth, NCI panel, 48 h.
Molecule `CCCCCCCCCCCC(=O)Oc1c(Cl)cc(Cl)c(OC(=O)C(=O)Oc2c(Cl)cc(Cl)c(OC(=O)CCCCCCCCCCC)c2Cl)c1Cl` came in with a TGI above 100 µM.

For `CC(NNC(=O)c1ccncc1)c1ccc(F)cc1` (stereo not drawn), the TGI is above 100 µM.

`Cn1c(=S)[nH]c2sc3c(c2c1=O)CCSC3` registered a TGI above 100 µM.

Molecule `O=C(/C=C/c1ccccc1)/C=N/N1C(=S)N(c2ccccc2)C(=Nc2ccccc2)C1=Nc1ccccc1` registered a TGI above 100 µM.

The subject of a further assay is BT-549 breast. Kind of assay: inhibition of tumour cell growth, NCI panel, 48 h.
`CCCCCCCCCCCC(=O)Oc1c(Cl)cc(Cl)c(OC(=O)C(=O)Oc2c(Cl)cc(Cl)c(OC(=O)CCCCCCCCCCC)c2Cl)c1Cl` had a TGI above 100 µM.

In turn, `CC(NNC(=O)c1ccncc1)c1ccc(F)cc1` (stereo not drawn) displayed a TGI above 100 µM.

As for `Cn1c(=S)[nH]c2sc3c(c2c1=O)CCSC3`, the TGI was above 100 µM.

Turning to `O=C(/C=C/c1ccccc1)/C=N/N1C(=S)N(c2ccccc2)C(=Nc2ccccc2)C1=Nc1ccccc1`, the TGI was above 100 µM.

A further assay deals with CAKI-1 renal. Description: inhibition of tumour cell growth, NCI panel, 48 h.
Regarding `CCCCCCCCCCCC(=O)Oc1c(Cl)cc(Cl)c(OC(=O)C(=O)Oc2c(Cl)cc(Cl)c(OC(=O)CCCCCCCCCCC)c2Cl)c1Cl`, the TGI is above 100 µM.

Take `CC(NNC(=O)c1ccncc1)c1ccc(F)cc1` (stereo not drawn): the TGI is above 100 µM.

With `Cn1c(=S)[nH]c2sc3c(c2c1=O)CCSC3`, the TGI is above 100 µM.

The molecule `O=C(/C=C/c1ccccc1)/C=N/N1C(=S)N(c2ccccc2)C(=Nc2ccccc2)C1=Nc1ccccc1` returned a TGI above 100 µM.

Another assay deals with CCRF-CEM leukemia. Description: inhibition of tumour cell growth, NCI panel, 48 h.
In turn, `CCCCCCCCCCCC(=O)Oc1c(Cl)cc(Cl)c(OC(=O)C(=O)Oc2c(Cl)cc(Cl)c(OC(=O)CCCCCCCCCCC)c2Cl)c1Cl` returned a TGI above 100 µM.

As to `CC(NNC(=O)c1ccncc1)c1ccc(F)cc1` (stereo not drawn), the TGI is above 100 µM.

Another assay relates to COLO 205 colon. Kind of assay: inhibition of tumour cell growth, NCI panel, 48 h.
Regarding `CCCCCCCCCCCC(=O)Oc1c(Cl)cc(Cl)c(OC(=O)C(=O)Oc2c(Cl)cc(Cl)c(OC(=O)CCCCCCCCCCC)c2Cl)c1Cl`, the TGI was above 100 µM.

Molecule `CC(NNC(=O)c1ccncc1)c1ccc(F)cc1` (stereo not drawn) registered a TGI above 100 µM.

On to `Cn1c(=S)[nH]c2sc3c(c2c1=O)CCSC3`, for which the TGI was above 100 µM.

Take `O=C(/C=C/c1ccccc1)/C=N/N1C(=S)N(c2ccccc2)C(=Nc2ccccc2)C1=Nc1ccccc1`: the TGI was above 100 µM.

Another assay deals with DU-145 prostate. Kind of assay: inhibition of tumour cell growth, NCI panel, 48 h.
`CCCCCCCCCCCC(=O)Oc1c(Cl)cc(Cl)c(OC(=O)C(=O)Oc2c(Cl)cc(Cl)c(OC(=O)CCCCCCCCCCC)c2Cl)c1Cl` came in with a TGI above 100 µM.

The molecule `CC(NNC(=O)c1ccncc1)c1ccc(F)cc1` (stereo not drawn) gave a TGI above 100 µM.

`Cn1c(=S)[nH]c2sc3c(c2c1=O)CCSC3` displayed a TGI of 57.1 µM.

Take `O=C(/C=C/c1ccccc1)/C=N/N1C(=S)N(c2ccccc2)C(=Nc2ccccc2)C1=Nc1ccccc1`: the TGI is above 100 µM.

The next assay has as its system EKVX NSCLC. Description: inhibition of tumour cell growth, NCI panel, 48 h.
In the case of `CCCCCCCCCCCC(=O)Oc1c(Cl)cc(Cl)c(OC(=O)C(=O)Oc2c(Cl)cc(Cl)c(OC(=O)CCCCCCCCCCC)c2Cl)c1Cl`, the TGI was above 100 µM.

The molecule `CC(NNC(=O)c1ccncc1)c1ccc(F)cc1` (stereo not drawn) returned a TGI above 100 µM.

The molecule `Cn1c(=S)[nH]c2sc3c(c2c1=O)CCSC3` yielded a TGI of 85.4 µM.

The molecule `O=C(/C=C/c1ccccc1)/C=N/N1C(=S)N(c2ccccc2)C(=Nc2ccccc2)C1=Nc1ccccc1` came in with a TGI above 100 µM.

For the next assay, the system named is HCC-2998 colon. Kind of assay: inhibition of tumour cell growth, NCI panel, 48 h.
The molecule `CC(NNC(=O)c1ccncc1)c1ccc(F)cc1` (stereo not drawn) registered a TGI above 100 µM.

The molecule `Cn1c(=S)[nH]c2sc3c(c2c1=O)CCSC3` displayed a TGI above 100 µM.

On to `O=C(/C=C/c1ccccc1)/C=N/N1C(=S)N(c2ccccc2)C(=Nc2ccccc2)C1=Nc1ccccc1`, for which the TGI was above 100 µM.

The next assay deals with HCT-116 colon. Description: inhibition of tumour cell growth, NCI panel, 48 h.
`CCCCCCCCCCCC(=O)Oc1c(Cl)cc(Cl)c(OC(=O)C(=O)Oc2c(Cl)cc(Cl)c(OC(=O)CCCCCCCCCCC)c2Cl)c1Cl` gave a TGI above 100 µM.

The molecule `CC(NNC(=O)c1ccncc1)c1ccc(F)cc1` (stereo not drawn) showed a TGI above 100 µM.

Molecule `Cn1c(=S)[nH]c2sc3c(c2c1=O)CCSC3` returned a TGI above 100 µM.

As for `O=C(/C=C/c1ccccc1)/C=N/N1C(=S)N(c2ccccc2)C(=Nc2ccccc2)C1=Nc1ccccc1`, the TGI is above 100 µM.

For the next assay, the system named is HCT-15 colon. Description: inhibition of tumour cell growth, NCI panel, 48 h.
Turning to `CC(NNC(=O)c1ccncc1)c1ccc(F)cc1` (stereo not drawn), the TGI is above 100 µM.

In turn, `Cn1c(=S)[nH]c2sc3c(c2c1=O)CCSC3` came in with a TGI above 100 µM.

For the molecule `O=C(/C=C/c1ccccc1)/C=N/N1C(=S)N(c2ccccc2)C(=Nc2ccccc2)C1=Nc1ccccc1`, the TGI was above 100 µM.

The test system of a further assay is HL-60(TB) leukemia. Description: inhibition of tumour cell growth, NCI panel, 48 h.
`CC(NNC(=O)c1ccncc1)c1ccc(F)cc1` (stereo not drawn) came in with a TGI above 100 µM.

As for `Cn1c(=S)[nH]c2sc3c(c2c1=O)CCSC3`, the TGI amounted to 43.3 µM.

The subject of a further assay is HOP-62 NSCLC. Kind of assay: inhibition of tumour cell growth, NCI panel, 48 h.
On to `CCCCCCCCCCCC(=O)Oc1c(Cl)cc(Cl)c(OC(=O)C(=O)Oc2c(Cl)cc(Cl)c(OC(=O)CCCCCCCCCCC)c2Cl)c1Cl`, for which the TGI is above 100 µM.

In turn, `CC(NNC(=O)c1ccncc1)c1ccc(F)cc1` (stereo not drawn) showed a TGI above 100 µM.

On to `Cn1c(=S)[nH]c2sc3c(c2c1=O)CCSC3`, for which the TGI was 66.3 µM.

`O=C(/C=C/c1ccccc1)/C=N/N1C(=S)N(c2ccccc2)C(=Nc2ccccc2)C1=Nc1ccccc1` came in with a TGI above 100 µM.

Another assay deals with HOP-92 NSCLC. Description: inhibition of tumour cell growth, NCI panel, 48 h.
In turn, `CCCCCCCCCCCC(=O)Oc1c(Cl)cc(Cl)c(OC(=O)C(=O)Oc2c(Cl)cc(Cl)c(OC(=O)CCCCCCCCCCC)c2Cl)c1Cl` had a TGI above 100 µM.

For the origin of these results see PubChem BioAssay (NCI).
